# US9255101B2 (BIOPROJECT, priority 2012, dated 2016)
# Counter-ions that a name gives are not always drawn.
# Molecular target: human H4 receptor (Homo sapiens, UniProt Q9H3N8)
# Assay: biochemical
# 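Also: radioligand displacement of a [3H]-labelled ligand from membranes of CHO cells stably expressing human H4 receptor, bound radioactivity counted on filters by liquid scintillation.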
row,Ki [nM],Structure (SMILES)
1,< 300,"CN1CCC(OC2c3ccccc3CCn3cc(-c4ccc(OCC5CC5)cc4)nc32)CC1 (centres unmarked) [Example 193, 2-(4-cyclopropylmethoxyphenyl)-4-(1-methylpiperidin-4-yloxy)-9,10-dihydro-4H-3,10a-diaza-benzo[f]azulene]"
2,< 300,"CN1CCC(OC2c3ccccc3CCn3cc(-c4ccc(CNC(=O)C(C)(C)C)cc4)nc32)CC1 (centres unmarked) [Example 136, 2,2-dimethyl-N-{4-[4-(1-methylpiperidin-4-yloxy)-9,10-dihydro-4H-3,10a-diaza-benzo[f]azulen-2-yl]-benzyl}-propionamide]"
3,< 300,"CCc1cn2c(n1)C(OC1CCN(C)CC1)c1ccccc1CC2 (centres unmarked) [Example 13, 2-ethyl-4-(1-methylpiperidin-4-yloxy)-9,10-dihydro-4H-3,10a-diaza-benzo[f]azulene oxalate]"
4,< 300,"CN1CCC(OC2c3ccccc3CCn3c2nc(Cc2ccccc2)c3C#N)CC1 (centres unmarked) [Example 263, 2-benzyl-4-(1-methylpiperidin-4-yloxy)-9,10-dihydro-4H-3,10a-diaza-benzo[f]azulene-1-carbonitrile]"
5,< 1000,"CN1CCC(OC2c3ccccc3CCn3cc(-c4ccccn4)nc32)CC1 (centres unmarked) [Example 23, 4-(1-methylpiperidin-4-yloxy)-2-pyridin-2-yl-9,10-dihydro-4H-3,10a-diaza-benzo[f]azulene]"
6,< 30,"Cc1c(-c2ccc(CCS(C)(=O)=O)cc2)nc2n1CCc1ccccc1C2OC1CCN(C)CC1 (centres unmarked) [Example 159, 2-[4-(2-methanesulfonylethyl)-phenyl]-1-methyl-4-(1-methylpiperidin-4-yloxy)-9,10-dihydro-4H-3,10a-diaza-benzo[f]azulene]"
7,< 1000,"CN1CCC(OC2c3ccccc3CCn3cc(C4=CCOCC4)nc32)CC1 (centres unmarked) [Example 106, 2-(3,6-dihydro-2H-pyran-4-yl)-4-(1-methyldpiperidin-4-yloxy)-9,10-dihydro-4H-3,10a-diaza-benzo[f]azulene]"
8,< 300,"CN1CCC(OC2c3ccccc3CCn3cc(-c4ccc(CCSC(C)(C)C)cc4)nc32)CC1 (centres unmarked) [Example 189, 2-[4-(2-tert-butylsulfanylethyl)-phenyl]-4-(1-methylpiperidin-4-yloxy)-9,10-dihydro-4H-3,10a-diaza-benzo[f]azulene]"
9,< 300,"CN1CCC(OC2c3ccccc3CCn3cc(-c4ccc(CN5CCN(C(C)(C)C)C5=O)cc4)nc32)CC1 (centres unmarked) [Example 191, 1-tertbutyl-3-{4-[4-(1-methylpiperidin-4-yloxy)-9,10-dihydro-4H-3,10a-diaza-benzo[f]azulen-2-yl]benzyl}-imidazolidin-2-one]"
10,< 1000,"Cc1ccc(-c2cn3c(n2)C(OC2CCN(C)CC2)c2ccccc2CC3)cn1 (centres unmarked) [Example 39, 4-(1-methylpiperidin-4-yloxy)-2-(6-methylpyridin-3-yl)-9,10-dihydro-4H-3,10a-diaza-benzo[f]azulene oxalate]"
11,< 1000,"CN1CCC(OC2c3ccccc3CCn3cc(C(C)(C)c4ccccc4)nc32)CC1 (centres unmarked) [Example 207, 2-(1-methyl-1-phenyl-ethyl)-4-(1-methylpiperidin-4-yloxy)-9,10-dihydro-4H-3,10a-diaza-benzo[f]azulene]"
12,< 30,"Cc1c(-c2ccc(C3=CCCCC3)cc2)nc2n1CCc1ccccc1C2OC1CCN(C)CC1 (centres unmarked) [Example 170, 2-(4-cyclohex-1-enylphenyl)-1-methyl-4-(1-methylpiperidin-4-yloxy)-9,10-dihydro-4H-3,10a-diaza-benzo[f]azulene]"
13,< 30,"Cc1c(-c2ccc(CCNC(=O)OC(C)(C)C)cc2)nc2n1CCc1ccccc1C2OC1CCN(C)CC1 (centres unmarked) [Example 223, (2-{4-[1-methyl-4-(1-methylpiperidin-4-yloxy)-9,10-dihydro-4H-3,10a-diaza-benzo[f]azulen-2-yl]-phenyl}-ethyl)-carbamic acid tert-butyl ester]"
14,< 300,"CN1CCC(OC2c3cccc(Cl)c3CCn3cc(I)nc32)CC1 (centres unmarked) [Example 78, 8-chloro-2-iodo-4-(1-methylpiperidin-4-yloxy)-9,10-dihydro-4H-3,10a-diaza-benzo[f]azulene]"
15,< 300,"CN1CCC(OC2c3ccccc3CCn3cc(C4=CCSCC4)nc32)CC1 (centres unmarked) [Example 57, 2-(3,6-dihydro-2H-thiopyran-4-yl)-4-(1-methylpiperidin-4-yloxy)-9,10-dihydro-4H-3,10a-diaza-benzo[f]azulene]"
16,< 1000,"CN1CCC(OC2c3ccccc3CCn3cc(-c4cncs4)nc32)CC1 (centres unmarked) [Example 48, 4-(1-methylpiperidin-4-yloxy)-2-thiazol-5-yl-9,10-dihydro-4H-3,10a-diaza-benzo[f]azulene oxalate]"
17,< 1000,"CN1CCC(OC2c3cccc(F)c3CCn3cc(-c4ccccc4)nc32)CC1 (centres unmarked) [Example 107, 8-fluoro-4-(1-methylpiperidin-4-yloxy)-2-phenyl-9,10-dihydro-4H-3,10a-diaza-benzo[f]azulene]"
18,< 30,"Cc1c(-c2ccc(SCCNC(=N)N)cc2)nc2n1CCc1ccccc1C2OC1CCN(C)CC1 (centres unmarked) [Example 211, N-(2-{4-[1-methyl-4-(1-methylpiperidin-4-yloxy)-9,10-dihydro-4H-3,10a-diaza-benzo[f]azulen-2-yl]-phenylsulfanyl}-ethyl)-guanidine]"

row,Ki [nM],Structure (SMILES)
1,< 30,"CN1CCC(OC2c3ccccc3CCn3cc(C=CCC4CCCC4)nc32)CC1 (centres unmarked) [Example 104, 2-(3-cyclopentylpropenyl)-4-(1-methylpiperidin-4-yloxy)-9,10-dihydro-4H-3,10a-diaza-benzo[f]azulene]"
2,< 30,"CN1CCC(OC2c3ccccc3CCn3cc(C=CCCCc4ccccc4)nc32)CC1 (centres unmarked) [Example 89, 4-(1-methylpiperidin-4-yloxy)-2-(5-phenylpent-1-enyl)-9,10-dihydro-4H-3,10a-diaza-benzo[f]azulene]"
3,< 300,"Cc1c(-c2ccc(C(=O)NC3CCC(O)CC3)cc2)nc2n1CCc1ccccc1C2OC1CCN(C)CC1 (centres unmarked) [Example 216, N-(4-hydroxycyclohexyl)-4-[1-methyl-4-(1-methylpiperidin-4-yloxy)-9,10-dihydro-4H-3,10a-diaza-benzo[f]azulen-2-yl]-benzamide]"
4,< 300,"CN(C)CCOc1ccc(-c2cn3c(n2)C(OC2CCN(C)CC2)c2ccccc2CC3)cc1 (centres unmarked) [Example 180, dimethyl-(2-{4-[4-(1-methylpiperidin-4-yloxy)-9,10-dihydro-4H-3,10a-diaza-benzo[f]azulen-2-yl]-phenoxy}-ethyl)-amine]"
5,< 300,"Cc1ccccc1-c1cn2c(n1)C(OC1CCN(C)CC1)c1ccccc1CC2 (centres unmarked) [Example 8, 4-(1-methyl-piperidin-4-yloxy)-2-o-tolyl-9,10-dihydro-4H-3,10a-diaza-benzo[f]azulene]"
6,< 300,"CN1CCC(OC2c3ccccc3CCn3cc(-c4ccccc4[N+](=O)[O-])nc32)CC1 (centres unmarked) [Example 190, 4-(1-methylpiperidin-4-yloxy)-2-(2-nitrophenyl)-9,10-dihydro-4H-3,10a-diaza-benzo[f]azulene]"
7,< 300,"CC(C)Cc1cn2c(n1)C(OC1CCN(C)CC1)c1ccccc1CC2 (centres unmarked) [Example 109, 2-isobutyl-4-(1-methylpiperidin-4-yloxy)-9,10-dihydro-4H-3,10a-diaza-benzo[f]azulene oxalate]"
8,< 300,"CN1CCC(OC2c3ccccc3CCn3cc(-c4ccc(CCOC(=O)NC(C)(C)C)cc4)nc32)CC1 (centres unmarked) [Example 200, tert-butyl-carbamic acid 2-{4-[4-(1-methylpiperidin-4-yloxy)-9,10-dihydro-4H-3,10a-diaza-benzo[f]azulen-2-yl]-phenyl}-ethyl ester]"
9,< 30,"Cc1c(-c2ccc(NC(=O)OCC(C)C)cc2)nc2n1CCc1ccccc1C2OC1CCN(C)CC1 (centres unmarked) [Example 174, {4-[1-Methyl-4-(1-methyl-piperidin-4-yloxy)-9,10-dihydro-4H-3,10a-diaza-benzo[f]azulen-2-yl]-phenyl}-carbamic acid isobutyl ester]"
10,< 30,"Cc1c(-c2ccc(SC(C)(C)C)cc2)nc2n1CCc1ccccc1C2OC1CCN(C)CC1 (centres unmarked) [Example 166, 2-(4-tert-butylsulfanylphenyl)-1-methyl-4-(1-methylpiperidin-4-yloxy)-9,10-dihydro-4H-3,10a-diaza-benzo[f]azulene oxalate]"
11,< 300,"CC(C)SCc1ccc(-c2cn3c(n2)C(OC2CCN(C)CC2)c2ccccc2CC3)cc1 (centres unmarked) [Example 186, 2-(4-isopropylsulfanylmethylphenyl)-4-(1-methylpiperidin-4-yloxy)-9,10-dihydro-4H-3,10a-diaza-benzo[f]azulene]"
12,< 300,"Cc1c(-c2ccc(N3CCN(C)C3=O)cc2)nc2n1CCc1ccccc1C2OC1CCN(C)CC1 (centres unmarked) [Example 132, 1-methyl-3-{4-[1-methyl-4-(1-methylpiperidin-4-yloxy)-9,10-dihydro-4H-3,10a-diaza-benzo[f]azulen-2-yl]-phenyl}-imidazolidin-2-one]"
13,< 300,"CN1CCC(OC2c3ccccc3CCn3cc(C=CC4CCCCC4)nc32)CC1 (centres unmarked) [Example 59, 2-(2-cyclohexyl-vinyl)-4-(1-methylpiperidin-4-yloxy)-9,10-dihydro-4H-3,10a-diaza-benzo[f]azulene]"
14,< 30,"Cc1c(-c2ccc(C3=CCCC3)cc2)nc2n1CCc1ccccc1C2OC1CCN(C)CC1 (centres unmarked) [Example 169, 2-(4-cyclopent-1-enylphenyl)-1-methyl-4-(1-methylpiperidin-4-yloxy)-9,10-dihydro-4H-3,10a-diaza-benzo[f]azulene]"
15,< 300,"CN1CCC(OC2c3ccccc3CCn3cc(-c4ccc(CN5CCCCC5=O)cc4)nc32)CC1 (centres unmarked) [Example 185, 1-{4-[4-(1-methylpiperidin-4-yloxy)-9,10-dihydro-4H-3,10a-diaza-benzo[f]azulen-2-yl]benzyl}-piperidin-2-one]"
16,< 30,"Cc1c(-c2ccc(N3CCN(C(C)C)C3=O)cc2)nc2n1CCc1ccccc1C2OC1CCN(C)CC1 (centres unmarked) [Example 178, 1-isopropyl-3-{4-[1-methyl-4-(1-methylpiperidin-4-yloxy)-9,10-dihydro-4H-3,10a-diaza-benzo[f]azulen-2-yl]-phenyl}-imidazolidin-2-one]"
17,< 30,"Cc1c(-c2ccc(N3C(=O)OCC3Cc3ccccc3)cc2)nc2n1CCc1ccccc1C2OC1CCN(C)CC1 (centres unmarked) [Example 176, 4-benzyl-3-{4-[1-methyl-4-(1-methylpiperidin-4-yloxy)-9,10-dihydro-4H-3,10a-diaza-benzo[f]azulen-2-yl]-phenyl}-oxazolidin-2-one]"
